According to patent US20070249988A1, “Electrotransport Delivery of Nesiritide” (ALZA CORPORATION, priority 2006, published 2007):

Columns and labels:
[1] = In vitro electrotransport of nesiritide across heat-separated human epidermis (ET cells, solution donor); type: in vitro ADME
Description: Nesiritide was screened in vitro for its electrotransport (ET) properties with heat-separated human epidermis/stratum corneum (skin).
In vitro electrotransport of nesiritide across heat-separated human epidermis/stratum corneum was conducted using anodic drive with ET cells in three separate sets of experiments, using human epidermis from three sources under the conditions set forth in the table below.
The pH of donor solutions was monitored before and after the experiments. The amount of passive transport was determined in fully assembled ET cells, incubated at 32° C. for 1 hour, with subsequent analysis of the receptor solution by RP-HPLC. […] The applied constant current was 100 μA/cm^2. The receptor solution was removed for analysis and replenished at 2 hour intervals during the first eight hours of testing, and then after 24 hours and 26 hours. The voltage drop across each cell was monitored at intervals throughout the experiment. Additionally, after the completion of transport studies, the solutions from some donor compartments were removed and analyzed either for evidence of peptide degradation or for pH changes.
When comparing data obtained using different conditions during ET Flux, it is thought to be more useful to compare the median values for each case (Holladay, L. A. 1995; personal communications). The use of the median as a figure of merit for ET flux data decreases the impact of both measurement and recovery problems for cells with low transport values. It also minimizes the impact of data from ECs with higher values, which may represent skin that was partially leaking. In order to compare the values of the median from different studies, it is necessary to have an estimate of the confidence interval for each median. If the values for the medians are different, but the confidence intervals overlap, then the results are not truly distinguished. For this work with nesiritide, a Bootstrap method (Diciccio, T. J., Romano, J. P. A Review of Bootstrap Confidence Intervals, J. R. Statist Soc B, 1988; 50 338-354; Efron, B., Tibshirani, R. Bootstrap Methods for Standard errors, Confidence Intervals, and Other Measures of Statistical Accuracy, Statistical Science, 1986; 1 54-77) was used to determine 95% and 67% confidence intervals for the data sets compared. The method estimates the intervals using considerable amounts of computation; 32,000 trials of the algorithm were used for these analyses.

[2] = In vitro electrotransport of nesiritide using hydrogel reservoirs; type: in vitro ADME; settings: heat separated human epidermis
Description: Suitable nesiritide flux rates can be achieved by selecting appropriate electrotransport conditions. […] The data shown in the figure were obtained using the transdermal delivery of nesiritide with a silver donor electrode at the anode and a silver chloride counter electrode at the cathode. […] The tests were performed on heat separated human epidermis.
In vitro electrotransport flux experiments were conducted using either synthetic polymeric Nulepore membranes or heat separated human cadaver epidermis. Custom-built horizontal diffusion cells were used for all in vitro skin flux experiments. Silver and silver chloride electrodes were used to apply current across the cell. Nesiritide hydrogels were placed between the silver anode and human heat-separated epidermis. In addition, a PVOH hydrogel containing a polymeric chloride source was placed between the silver anode and the drug hydrogel. A 1/10 dilution of Dulbecco's phosphate buffered saline (0.015 M NaCl) served as the receptor solution, which was continuously pumped through the receptor compartment. […]
(§1) The receptor samples were analyzed for nesiritide using a HPLC assay. In addition, as show in FIGS. 6B and 7B, formulations were also extracted for nesiritide and analyzed via a HPLC assay after use in a flux experiment.

[3] = Stability under donor conditions (buffer, RP-HPLC); type: physicochemical
Description: The stability of nesiritide at 32° C. under both donor and receptor conditions was evaluated.
(§2) The peptide was incubated in various buffer systems, both with and without human epidermis, at concentrations to be used for donor solutions. Experiments were conducted at 32° C. for 8 hours and 24 hours. The solutions were separated into portions and analyzed by RP-HPLC using the conditions described in the table below, both directly and after dilution to give a concentration of nesiritide at ˜100 μg/mL. In some cases, donor solutions were also removed and analyzed following ET Flux experiments.

[4] = Stability on exposure to human epidermis; type: in vitro ADME
Description: as §2

[5] = In use stability of hydrogel formulations under electrotransport conditions (HPLC); type: physicochemical; settings: hydrogel formulation, over 24 hours, at 0.1 mA/cm^2 and 32° C.
Description: In vitro electrotransport flux experiments were conducted using either synthetic polymeric Nulepore membranes or heat separated human cadaver epidermis. Custom-built horizontal diffusion cells were used for all in vitro skin flux experiments. Silver and silver chloride electrodes were used to apply current across the cell. Nesiritide hydrogels were placed between the silver anode and human heat-separated epidermis. In addition, a PVOH hydrogel containing a polymeric chloride source was placed between the silver anode and the drug hydrogel. A 1/10 dilution of Dulbecco's phosphate buffered saline (0.015 M NaCl) served as the receptor solution, which was continuously pumped through the receptor compartment. At multiple time points, receptor samples for HPLC analysis were collected using a custom-built, automated Hanson Research Microette™ collection system.
as §1

[6] = 8 hour delivery, study a & c, fresh skin, combine 1 mM & 3 mM, 100 μA/cm^2
[7] = 8 hour delivery, study a & c, fresh skin, donor 1 mM, 100 μA/cm^2
[8] = 8 hour delivery, study b, frozen skin, donor 1 mM, 100 μA/cm^2
[9] = 8 hour delivery, study b, frozen skin, donor 3 mM, 100 μA/cm^2
[10] = 8 hour delivery, study c, fresh skin, donor 3 mM, 100 μA/cm^2

Structure (SMILES): CC[C@H](C)[C@@H]1NC(=O)[C@H](CCCNC(=N)N)NC(=O)[C@H](CC(=O)O)NC(=O)[C@H](CCSC)NC(=O)[C@H](CCCCN)NC(=O)[C@H](CCCNC(=N)N)NC(=O)CNC(=O)[C@H](Cc2ccccc2)NC(=O)[C@@H](NC(=O)CNC(=O)[C@H](CO)NC(=O)CNC(=O)[C@H](CCC(N)=O)NC(=O)[C@@H](NC(=O)[C@H](CCSC)NC(=O)[C@H](CCCCN)NC(=O)[C@@H]2CCCN2C(=O)[C@@H](N)CO)C(C)C)CSSC[C@@H](C(=O)N[C@@H](CCCCN)C(=O)N[C@H](C(=O)N[C@@H](CC(C)C)C(=O)N[C@@H](CCCNC(=N)N)C(=O)N[C@@H](CCCNC(=N)N)C(=O)N[C@@H](Cc2c[nH]cn2)C(=O)O)C(C)C)NC(=O)CNC(=O)[C@H](CC(C)C)NC(=O)CNC(=O)[C@H](CO)NC(=O)[C@H](CO)NC(=O)[C@H](CO)NC(=O)[C@H](CO)NC1=O [Nesiritide, nesiritide]
- comprehensive median value for transport through human skin ([1]; 1 mM and 3 mM donor combined, 95% confidence interval of 1.2-2.1): 1.6 μg cm^−2h^−1
- Mean electrotransport flux ([1]; 1 mM and 3 mM, study a & c, sampling up to 8 h, fresh skin): 4.7 μg cm^−2 h^−1
- Mean electrotransport flux ([1]; 1 mM and 3 mM, study b, sampling 8 h–26 h, frozen skin): 1.5 μg cm^−2 h^−1
- Mean electrotransport flux ([1]; 1 mM and 3 mM, study b, sampling up to 8 h, frozen skin): 18.6 μg cm^−2 h^−1
- Mean electrotransport flux ([1]; 1 mM and 3 mM, study c, sampling 8 h–26 h, fresh skin): 1.3 μg cm^−2 h^−1
- Mean electrotransport flux [1, 6]: 4.7 μg cm^−2 h^−1
- Median electrotransport flux [1, 6]: 1.6 μg cm^−2 h^−1
- Mean electrotransport flux [1, 7]: 3.0 μg cm^−2 h^−1
- Median electrotransport flux [1, 7]: 1.6 μg cm^−2 h^−1
- Mean electrotransport flux [1, 8]: 10.7 μg cm^−2 h^−1
- Median electrotransport flux [1, 8]: 6.3 μg cm^−2 h^−1
- Mean electrotransport flux [1, 9]: 24.9 μg cm^−2 h^−1
- Median electrotransport flux [1, 9]: 5.6 μg cm^−2 h^−1
- Mean electrotransport flux [1, 10]: 8.2 μg cm^−2 h^−1
- Median electrotransport flux [1, 10]: 2.0 μg cm^−2 h^−1
- transport with respect to time ([1]; by 24 hours (FIG. 2)): approaches zero transport
- median values for transport, donor 1 mM versus 3 mM ([1]; comparison of donor 1 mM and 3 mM (FIG. 3)): not significantly different
- Median Transport ([1]; fresh skin, Mid-time 0): 0 μg cm^−2 h^−1
- Median Transport ([1]; fresh skin, Mid-time 0.6): 4.00 μg cm^−2 h^−1
- Median Transport ([1]; fresh skin, Mid-time 2.2): 2.01 μg cm^−2 h^−1
- Median Transport ([1]; fresh skin, Mid-time 4.2): 1.55 μg cm^−2 h^−1
- Median Transport ([1]; fresh skin, Mid-time 6.2): 1.06 μg cm^−2 h^−1
- Median Transport ([1]; fresh skin, Mid-time 16): 0.37 μg cm^−2 h^−1
- Median Transport ([1]; fresh skin, Mid-time 25): 0.80 μg cm^−2 h^−1
- correlation between magnitude of applied current and steady state flux [2]: linear correlation
- in vitro transport efficiency ([2]; silver donor electrode at anode, silver chloride counter electrode at cathode): about 0.14 mg/mAhr
- stability ([3]; pH 6, 7 or 8, without human epidermis, 32° C., 8-hour): considerable stability
- stability ([3]; pH 6 and 7, 24-hour incubation at 32° C.): remained stable
- degradation ([3]; pH 6 or 7, after 24 hours at 32° C.): minimal
- stability ([3]; pH 8, 24-hour incubation at 32° C.): considerable loss of nesiritide
- peptide degradation or change in disulfide bond in donor solutions ([3]; selected donor solutions following ET flux): no peptide degradation or change in the disulfide bond
- resistance to destruction ([4]; following exposure to human epidermis): quite resistant to destruction
- stability with added human skin ([4]; pH 7, 24-hour, 32° C., with added human skin): no destruction
- in use stability under electrotransport conditions [5]: sufficient stability
